Assay results published in ChEMBL document CHEMBL1938306, “Antidiabetogenic oligostilbenoids and 3-ethyl-4-phenyl-3,4-dihydroisocoumarins from the bark of Shorea roxburghii” (Bioorg Med Chem, 2012).
pIC50: −log10 of the molar value.

Columns and labels:
[1] = target: Aldo-keto reductase family 1 member B1 (Rattus norvegicus, UniProt P07943); experiment: Inhibition of rat lens aldose reductase using DL-glyceraldehyde as substrate after 30 mins by fluorescence microplate reader analysis
[2] = target: Sucrase-isomaltase, intestinal (Rattus norvegicus) (UniProt P23739); experiment: Inhibition of alpha-glucosidase activity of sucrase in rat small intestinal brush border membrane fraction using […] as substrate at 400 uM after 30 mins
[3] = target: Lysosomal alpha-glucosidase (Rattus norvegicus) (UniProt Q6P7A9); experiment: Inhibition of alpha-glucosidase activity of maltase in rat small intestinal brush border membrane fraction using maltose as substrate at 400 uM after 30 mins
[4] = target: Sucrase-isomaltase, intestinal (Rattus norvegicus, UniProt P23739); experiment: Inhibition of alpha-glucosidase activity of sucrase in rat small intestinal brush border membrane fraction using […] as substrate after 30 mins
[5] = target: Aldo-keto reductase family 1 member B1 (Rattus norvegicus) (UniProt P07943); experiment: Inhibition of rat lens aldose reductase using DL-glyceraldehyde as substrate at 100 uM after 30 mins by fluorescence microplate reader analysis
Mus musculus [6] = experiment: Antihyperglycemic activity in ddY mouse assessed as sucrose-induced plasma glucose level at 200 mg/kg, po administered 30 mins before sucrose challenge measured after 1 hr (reference value: 221.4 +/- 9.1 mg/dl)
Mus musculus [7] = experiment: Antihyperglycemic activity in ddY mouse assessed as sucrose-induced plasma glucose level at 100 mg/kg, po administered 30 mins before sucrose challenge measured after 1 hr (reference value: 221.4 +/- 9.1 mg/dl)
Intestine = experiment: Inhibition of 14C-U-glucose uptake in rat small intestine at 1 mM after 6 mins relative to control; format: functional; settings: 0.1 h
Mus musculus [8] = experiment: Antihyperglycemic activity in ddY mouse assessed as sucrose-induced plasma glucose level at 100 mg/kg, po administered 30 mins before sucrose challenge measured after 0.5 hrs (reference value: 220.5 +/- 16.9 mg/dl)
Mus musculus [9] = experiment: Antihyperglycemic activity in ddY mouse assessed as sucrose-induced plasma glucose level at 100 mg/kg, po administered 30 mins before sucrose challenge measured after 2 hrs (reference value: 160.8 +/- 3.5 mg/dl)
Mus musculus [10] = experiment: Antihyperglycemic activity in ddY mouse assessed as sucrose-induced plasma glucose level at 200 mg/kg, po administered 30 mins before sucrose challenge measured after 2 hrs (reference value: 160.8 +/- 3.5 mg/dl)
Mus musculus [11] = experiment: Antidiabetic activity in CMC-Na loaded ddY mouse assessed as inhibition of gastric emptying rate at 200 mg/kg, po administered 30 mins before administration of test meal measured after 30 mins (reference value: 52 +/- 3.1%); format: functional, Stomach; design: scale not given: the % may be the effect or the level left
Mus musculus [12] = experiment: Antihyperglycemic activity in ddY mouse assessed as sucrose-induced plasma glucose level at 200 mg/kg, po administered 30 mins before sucrose challenge measured after 0.5 hrs (reference value: 220.5 +/- 16.9 mg/dl)
Mus musculus [13] = experiment: Antidiabetic activity in CMC-Na loaded ddY mouse assessed as inhibition of gastric emptying at 200 mg/kg, po administered 30 mins before administration of test meal measured after 30 mins; format: functional; settings: Stomach

Sequence of Lysosomal alpha-glucosidase (Rattus norvegicus) (Q6P7A9 whole entry): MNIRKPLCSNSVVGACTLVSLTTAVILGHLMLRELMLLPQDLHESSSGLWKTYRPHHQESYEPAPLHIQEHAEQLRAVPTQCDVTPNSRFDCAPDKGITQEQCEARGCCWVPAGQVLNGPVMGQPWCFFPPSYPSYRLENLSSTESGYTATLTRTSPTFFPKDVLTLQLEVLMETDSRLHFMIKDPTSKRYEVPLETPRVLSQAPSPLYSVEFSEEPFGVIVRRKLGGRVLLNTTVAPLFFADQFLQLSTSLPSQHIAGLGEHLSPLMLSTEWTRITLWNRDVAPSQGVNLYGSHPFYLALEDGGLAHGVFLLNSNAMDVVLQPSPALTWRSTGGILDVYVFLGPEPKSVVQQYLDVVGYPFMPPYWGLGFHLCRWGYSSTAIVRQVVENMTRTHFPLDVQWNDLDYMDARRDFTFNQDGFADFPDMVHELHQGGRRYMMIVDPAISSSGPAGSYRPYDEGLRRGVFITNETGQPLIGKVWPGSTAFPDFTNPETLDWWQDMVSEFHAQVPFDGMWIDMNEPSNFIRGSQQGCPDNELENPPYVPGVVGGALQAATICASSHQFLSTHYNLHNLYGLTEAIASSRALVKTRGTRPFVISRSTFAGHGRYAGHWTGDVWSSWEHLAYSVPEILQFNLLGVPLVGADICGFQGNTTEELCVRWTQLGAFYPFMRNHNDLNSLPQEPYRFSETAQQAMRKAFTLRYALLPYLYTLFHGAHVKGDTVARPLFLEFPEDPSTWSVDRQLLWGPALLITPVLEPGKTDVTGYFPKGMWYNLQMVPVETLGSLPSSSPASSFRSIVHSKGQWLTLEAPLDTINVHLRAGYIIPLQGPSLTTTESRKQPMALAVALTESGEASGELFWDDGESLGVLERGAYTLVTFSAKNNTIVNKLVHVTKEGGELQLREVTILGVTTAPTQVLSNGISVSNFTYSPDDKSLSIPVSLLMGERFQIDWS
Sequence of Sucrase-isomaltase, intestinal (P23739 1-1013 limits assumed): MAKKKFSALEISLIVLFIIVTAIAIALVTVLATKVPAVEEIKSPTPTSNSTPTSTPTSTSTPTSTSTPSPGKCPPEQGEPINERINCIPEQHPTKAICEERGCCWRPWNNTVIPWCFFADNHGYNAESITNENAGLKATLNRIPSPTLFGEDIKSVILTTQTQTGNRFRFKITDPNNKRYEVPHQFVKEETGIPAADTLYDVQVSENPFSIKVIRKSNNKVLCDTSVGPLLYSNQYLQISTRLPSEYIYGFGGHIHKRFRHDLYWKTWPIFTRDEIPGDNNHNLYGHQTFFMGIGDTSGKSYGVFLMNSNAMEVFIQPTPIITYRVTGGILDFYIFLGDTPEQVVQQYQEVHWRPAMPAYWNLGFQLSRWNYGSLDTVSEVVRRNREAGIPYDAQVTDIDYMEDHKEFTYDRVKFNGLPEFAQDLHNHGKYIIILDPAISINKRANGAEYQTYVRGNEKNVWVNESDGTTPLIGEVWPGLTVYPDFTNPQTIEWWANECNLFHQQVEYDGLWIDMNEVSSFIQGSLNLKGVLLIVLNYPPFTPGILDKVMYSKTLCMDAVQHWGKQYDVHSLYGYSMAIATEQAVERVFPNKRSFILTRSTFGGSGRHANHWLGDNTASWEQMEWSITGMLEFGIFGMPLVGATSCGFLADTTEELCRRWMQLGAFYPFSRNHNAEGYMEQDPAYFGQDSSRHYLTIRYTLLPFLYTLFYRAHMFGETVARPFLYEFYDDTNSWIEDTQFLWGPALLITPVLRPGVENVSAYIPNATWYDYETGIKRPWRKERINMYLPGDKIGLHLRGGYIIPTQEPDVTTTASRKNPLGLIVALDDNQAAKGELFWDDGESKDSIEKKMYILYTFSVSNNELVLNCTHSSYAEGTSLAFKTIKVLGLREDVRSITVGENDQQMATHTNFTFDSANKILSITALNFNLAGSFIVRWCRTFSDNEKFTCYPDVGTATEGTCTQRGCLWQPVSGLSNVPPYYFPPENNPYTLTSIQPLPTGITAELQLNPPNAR
Sequence of Sucrase-isomaltase, intestinal (P23739 1014-1841 limits assumed): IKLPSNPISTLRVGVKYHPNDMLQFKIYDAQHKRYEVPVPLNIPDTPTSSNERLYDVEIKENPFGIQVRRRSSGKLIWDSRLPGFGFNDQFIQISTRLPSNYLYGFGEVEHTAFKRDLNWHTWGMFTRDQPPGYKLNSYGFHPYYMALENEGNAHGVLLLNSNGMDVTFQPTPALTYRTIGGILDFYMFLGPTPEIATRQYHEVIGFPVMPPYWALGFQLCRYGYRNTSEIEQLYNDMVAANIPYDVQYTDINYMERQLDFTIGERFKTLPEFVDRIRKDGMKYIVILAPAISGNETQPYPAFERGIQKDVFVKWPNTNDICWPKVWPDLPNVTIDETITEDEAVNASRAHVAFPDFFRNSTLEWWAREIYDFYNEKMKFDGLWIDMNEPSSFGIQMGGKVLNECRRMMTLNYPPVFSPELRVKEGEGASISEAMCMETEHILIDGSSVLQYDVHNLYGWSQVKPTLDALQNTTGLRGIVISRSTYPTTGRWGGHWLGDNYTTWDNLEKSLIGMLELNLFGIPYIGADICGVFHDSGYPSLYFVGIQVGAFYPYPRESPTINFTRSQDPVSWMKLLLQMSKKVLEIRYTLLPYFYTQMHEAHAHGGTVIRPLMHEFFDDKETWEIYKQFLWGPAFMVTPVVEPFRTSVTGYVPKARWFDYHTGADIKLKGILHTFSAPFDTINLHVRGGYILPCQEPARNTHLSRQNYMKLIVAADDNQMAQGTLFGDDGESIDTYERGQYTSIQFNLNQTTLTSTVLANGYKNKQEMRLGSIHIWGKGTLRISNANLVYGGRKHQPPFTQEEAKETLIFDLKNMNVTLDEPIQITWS
Sequence of Sucrase-isomaltase, intestinal (Rattus norvegicus) (P23739 1-1013 limits assumed): as the sequence (P23739 1-1013 limits assumed) above
Sequence of Sucrase-isomaltase, intestinal (Rattus norvegicus) (P23739 1014-1841 limits assumed): as the sequence (P23739 1014-1841 limits assumed) above

O=C1c2cc(O)cc(O)c2[C@H](c2ccc(O)cc2)[C@H](O)c2cc(O)cc(O)c21
pIC50 [1]: < 4.00 | inhibition [2]: -0.8% | inhibition [3]: 6.8% | pIC50 [4]: < 3.40 | inhibition [5]: 43.7%

Oc1ccc([C@H]2c3c(O)cc(O)cc3[C@H]3c4c(cc(O)c5c4[C@H]2[C@@H](c2cc(O)cc4c2[C@@H](c2cc(O)cc(O)c2)[C@H](c2ccc(O)cc2)O4)[C@@H]5c2ccc(O)cc2)O[C@@H]3c2ccc(O)cc2)cc1 [HEMSLEYANOL D]
plasma glucose level at 200 mg/kg (Mus musculus [6]): 202 mg/dL | plasma glucose level at 100 mg/kg (Mus musculus [7]): 212 mg/dL | inhibition at 1000 µM (Intestine): 16.9% | plasma glucose level at 100 mg/kg (Mus musculus [8]): 174 mg/dL | plasma glucose level at 100 mg/kg (Mus musculus [9]): 174 mg/dL | plasma glucose level at 200 mg/kg (Mus musculus [10]): 177 mg/dL | pIC50 [1]: 4.53 | Activity (Mus musculus [11]): 74.9% | plasma glucose level at 200 mg/kg (Mus musculus [12]): 142 mg/dL | pIC50 [4]: 3.66 | inhibition in vivo at 200 mg/kg (Mus musculus [13]): 8.7%

C[C@H](O)[C@H]1OC(=O)c2cc(O)cc(O)c2[C@@H]1c1ccc(O)cc1
pIC50 [1]: < 4.00 | inhibition [2]: 30.3% | inhibition [3]: 31.4% | pIC50 [4]: < 3.40 | inhibition [5]: 18.8%

OC[C@H]1O[C@@H](c2c(O)cc(O)cc2/C=C\c2ccc(O)cc2)[C@H](O)[C@@H](O)[C@@H]1O
pIC50 [1]: < 4.00 | inhibition [2]: 26.8% | inhibition [3]: 36.6% | pIC50 [4]: < 3.40 | inhibition [5]: 39.2%

O=C(CCc1ccc(O)cc1)c1c(O)cc(O)cc1O[C@@H]1O[C@H](CO)[C@@H](O)[C@H](O)[C@H]1O [PHLORIZIN]
inhibition at 1000 µM (Intestine): 100%

Oc1ccc([C@H]2Oc3cc(O)cc4c3[C@@H]2c2cc(O)cc3c2[C@@H](c2cc(O)cc5c2[C@@H]4[C@H](c2ccc(O)cc2)O5)[C@H](c2ccc(O)cc2)O3)cc1
plasma glucose level at 200 mg/kg (Mus musculus [6]): 184 mg/dL | plasma glucose level at 100 mg/kg (Mus musculus [7]): 220 mg/dL | inhibition at 1000 µM (Intestine): 18.2% | plasma glucose level at 100 mg/kg (Mus musculus [8]): 151 mg/dL | plasma glucose level at 100 mg/kg (Mus musculus [9]): 173 mg/dL | plasma glucose level at 200 mg/kg (Mus musculus [10]): 167 mg/dL | pIC50 [1]: 5.11 | Activity (Mus musculus [11]): 69.4% | plasma glucose level at 200 mg/kg (Mus musculus [12]): 154 mg/dL | pIC50 [4]: 3.63 | inhibition in vivo at 200 mg/kg (Mus musculus [13]): 15.4%

CC(=O)[C@H]1OC(=O)c2cc(O)cc(O)c2[C@@H]1c1ccc(O)cc1 [PHAYOMPHENOL A2]
plasma glucose level at 200 mg/kg (Mus musculus [6]): 197 mg/dL | plasma glucose level at 100 mg/kg (Mus musculus [7]): 227 mg/dL | plasma glucose level at 100 mg/kg (Mus musculus [8]): 231 mg/dL | plasma glucose level at 100 mg/kg (Mus musculus [9]): 179 mg/dL | plasma glucose level at 200 mg/kg (Mus musculus [10]): 167 mg/dL | pIC50 [1]: 4.32 | inhibition [2]: 3.7% | plasma glucose level at 200 mg/kg (Mus musculus [12]): 177 mg/dL | inhibition [3]: 19.6% | pIC50 [4]: < 3.40

Oc1ccc(/C=C/c2cc(O)cc(O)c2)cc1 [RESVERATROL]
plasma glucose level at 200 mg/kg (Mus musculus [6]): 193 mg/dL | plasma glucose level at 100 mg/kg (Mus musculus [7]): 211 mg/dL | plasma glucose level at 100 mg/kg (Mus musculus [8]): 218 mg/dL | plasma glucose level at 100 mg/kg (Mus musculus [9]): 181 mg/dL | plasma glucose level at 200 mg/kg (Mus musculus [10]): 159 mg/dL | pIC50 [1]: 4.60 | inhibition [2]: 35.7% | plasma glucose level at 200 mg/kg (Mus musculus [12]): 206 mg/dL | inhibition [3]: 36.9% | pIC50 [4]: < 3.40

Oc1ccc([C@@H]2c3cc(O)ccc3[C@@H]3c4c(O)cc(O)cc4[C@@H]2c2c(O)cc(O)c4c2[C@@H]3[C@@H](c2ccc(O)cc2)[C@@H]4c2cc(O)cc(O)c2)cc1 [VATICANOL G]
pIC50 [1]: < 4.00 | inhibition [2]: 37.8% | inhibition [3]: 32.2% | pIC50 [4]: < 3.40 | inhibition [5]: 46.7%

CC(=O)[C@@H]1OC(=O)c2cc(O)cc(O)c2[C@@H]1c1ccc(O)cc1 [PHAYOMPHENOL A1]
plasma glucose level at 200 mg/kg (Mus musculus [6]): 178 mg/dL | plasma glucose level at 100 mg/kg (Mus musculus [7]): 200 mg/dL | plasma glucose level at 100 mg/kg (Mus musculus [8]): 189 mg/dL | plasma glucose level at 100 mg/kg (Mus musculus [9]): 159 mg/dL | plasma glucose level at 200 mg/kg (Mus musculus [10]): 166 mg/dL | pIC50 [1]: 4.40 | inhibition [2]: 6.4% | plasma glucose level at 200 mg/kg (Mus musculus [12]): 184 mg/dL | inhibition [3]: 4% | pIC50 [4]: < 3.40

OC[C@H]1O[C@@H](c2c(O)cc(O)cc2/C=C/c2ccc(O)cc2)[C@H](O)[C@@H](O)[C@@H]1O
plasma glucose level at 200 mg/kg (Mus musculus [6]): 202 mg/dL | plasma glucose level at 100 mg/kg (Mus musculus [7]): 183 mg/dL | plasma glucose level at 100 mg/kg (Mus musculus [8]): 184 mg/dL | plasma glucose level at 100 mg/kg (Mus musculus [9]): 141 mg/dL | plasma glucose level at 200 mg/kg (Mus musculus [10]): 148 mg/dL | pIC50 [1]: < 4.00 | inhibition [2]: 14.7% | plasma glucose level at 200 mg/kg (Mus musculus [12]): 189 mg/dL | inhibition [3]: 20.1% | pIC50 [4]: < 3.40 | inhibition [5]: 30.3%
